From publication PMC5068113 (Pharmacognosy Magazine, 2016)
Converted amounts (≈) assume the structure as drawn.

Assays:
Assay in all cases: CYP inhibition by substrate-cocktail method in HLM
Format in all cases: in vitro ADME
human CYP2C8 = biological target: T1, human CYP2C8 (Homo sapiens, UniProt P10632)
T1 sequence (P10632 1-490): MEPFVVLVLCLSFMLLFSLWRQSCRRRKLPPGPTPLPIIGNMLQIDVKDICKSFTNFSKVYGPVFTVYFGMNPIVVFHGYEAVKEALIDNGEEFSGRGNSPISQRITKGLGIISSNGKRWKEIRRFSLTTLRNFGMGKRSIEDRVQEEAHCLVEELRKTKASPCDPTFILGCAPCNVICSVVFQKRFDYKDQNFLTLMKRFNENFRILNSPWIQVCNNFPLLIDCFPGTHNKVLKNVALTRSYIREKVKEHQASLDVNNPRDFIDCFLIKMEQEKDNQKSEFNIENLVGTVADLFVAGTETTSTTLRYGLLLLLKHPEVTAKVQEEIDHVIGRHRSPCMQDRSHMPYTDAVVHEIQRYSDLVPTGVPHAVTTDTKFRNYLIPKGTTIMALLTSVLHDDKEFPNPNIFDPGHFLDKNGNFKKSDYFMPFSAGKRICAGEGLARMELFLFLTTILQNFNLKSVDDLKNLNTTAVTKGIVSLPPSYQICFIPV

CYP2D6 = CYP2D6 (Homo sapiens, UniProt P10635); settings: human liver microsomes, pH 7.4, probe dextromethorphan
CYP1A2 = biological target: T2, CYP1A2 (Homo sapiens, UniProt P05177); settings: human liver microsomes, pH 7.4, probe tacrine
T2 sequence (P05177 1-516): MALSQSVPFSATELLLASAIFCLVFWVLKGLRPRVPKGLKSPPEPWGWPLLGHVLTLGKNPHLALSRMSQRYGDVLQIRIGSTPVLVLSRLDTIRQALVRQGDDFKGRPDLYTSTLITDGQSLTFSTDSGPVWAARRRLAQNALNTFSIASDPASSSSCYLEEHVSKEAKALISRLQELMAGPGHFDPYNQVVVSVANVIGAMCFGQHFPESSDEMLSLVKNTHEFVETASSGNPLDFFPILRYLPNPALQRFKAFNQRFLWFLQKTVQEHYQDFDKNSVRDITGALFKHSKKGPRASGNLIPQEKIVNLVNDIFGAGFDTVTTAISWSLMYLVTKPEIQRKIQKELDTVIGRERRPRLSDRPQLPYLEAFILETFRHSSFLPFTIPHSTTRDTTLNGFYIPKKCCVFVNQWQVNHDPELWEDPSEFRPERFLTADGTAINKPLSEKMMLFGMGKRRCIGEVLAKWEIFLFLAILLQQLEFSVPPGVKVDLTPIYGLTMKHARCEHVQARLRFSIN

CYP2C9 = CYP2C9 (Homo sapiens, UniProt P11712); settings: human liver microsomes, pH 7.4, probe diclofenac
Chain of CYP2C9 (P11712 whole entry): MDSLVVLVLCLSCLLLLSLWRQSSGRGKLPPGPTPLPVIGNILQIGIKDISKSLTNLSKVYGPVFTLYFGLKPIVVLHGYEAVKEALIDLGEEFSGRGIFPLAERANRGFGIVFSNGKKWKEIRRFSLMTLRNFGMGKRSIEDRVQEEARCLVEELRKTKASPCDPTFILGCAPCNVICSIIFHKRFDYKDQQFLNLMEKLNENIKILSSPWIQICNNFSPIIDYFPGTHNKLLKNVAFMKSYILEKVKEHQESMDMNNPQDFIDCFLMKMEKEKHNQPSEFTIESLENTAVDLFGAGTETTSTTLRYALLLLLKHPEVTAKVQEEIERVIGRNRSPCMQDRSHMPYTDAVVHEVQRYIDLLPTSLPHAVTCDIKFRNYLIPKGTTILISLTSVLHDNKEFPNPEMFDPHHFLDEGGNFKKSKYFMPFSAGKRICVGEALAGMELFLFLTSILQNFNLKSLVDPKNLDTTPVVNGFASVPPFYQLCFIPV

Chain of CYP2D6 (P10635 whole entry): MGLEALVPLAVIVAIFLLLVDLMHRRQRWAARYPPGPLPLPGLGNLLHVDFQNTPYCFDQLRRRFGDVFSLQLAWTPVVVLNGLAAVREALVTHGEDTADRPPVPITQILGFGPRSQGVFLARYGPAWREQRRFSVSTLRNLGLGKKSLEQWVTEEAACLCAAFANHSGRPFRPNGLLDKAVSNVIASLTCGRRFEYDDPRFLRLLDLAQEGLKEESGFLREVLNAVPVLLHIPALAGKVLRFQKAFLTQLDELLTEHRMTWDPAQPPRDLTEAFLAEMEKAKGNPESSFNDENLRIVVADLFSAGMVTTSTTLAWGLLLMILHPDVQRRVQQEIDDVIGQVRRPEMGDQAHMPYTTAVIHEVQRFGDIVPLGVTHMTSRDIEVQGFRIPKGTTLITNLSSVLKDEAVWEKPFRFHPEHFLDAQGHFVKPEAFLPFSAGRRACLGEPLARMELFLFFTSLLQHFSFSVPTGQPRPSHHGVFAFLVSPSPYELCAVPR

SMILES | effect on CYP2C8 activity (in words) (human CYP2C8) | IC50 at 8 min (CYP2D6) | IC50 at 8 min (CYP1A2) | IC50 at 8 min (CYP2C9)
CC1(CO)C(O[C@@H]2O[C@H](C(=O)O)[C@@H](O)[C@H](O)[C@H]2O)CC[C@@]2(C)C1CC[C@]1(C)C2CC=C2[C@H]3CC(C)(C)[C@H](O)[C@@H](O)[C@]3(CO)[C@H](O)C[C@]21C (stereo partly shown) [DGA, deacylgymnemic acid] | unaffected | – | – | –
Clc1ccc(COC(Cn2ccnc2)c2ccc(Cl)cc2Cl)c(Cl)c1 (stereo not shown) [MCZN, miconazole] | – | 0.56 µg/mL (≈ 1.35 µM) | 0.89 µg/mL (≈ 2.14 µM) | 0.19 µg/mL (≈ 0.457 µM)
